In patent US20110212890A1, “METASTIN DERIVATIVE AND USE THEREOF” (Takeda Pharmaceutical Company Limited, priority 2008, published 2011):
Ahx = NCCCCCC(=O)O

What was measured:
male Crl: CD (SD) rats [1] = assay: LH release action in male rat (plasma LH by radioimmunoassay); type: in vivo
Procedure: (§1) For male Crl: CD (SD) rats (8 or 10 weeks old), compounds 1 (10 weeks old), 3, 8, 9, 10 and 11 (8 weeks old) (1, 10 or 100 nmol/kg), and metastin (45-54) (PEPTIDE INSTITUTE, INC., 10 or 100 nmol/kg), which were dissolved in physiological saline, were administered subcutaneously to the dorsum. For the control group, a physiological saline was administered subcutaneously to the dorsum. About 0.4 mL of the blood was collected from the tail vein before the administration (0 hour) and after 0.5, 1, 2, 4 hours of the administration of compounds 1, 3, 8, 9, 10 and 11, and metastin (45-54), or physiological saline. The collected blood was well mixed with 12 μL of 10 w/v % EDTA.2Na-containing trasylol solution (Bayer AG), and then separated by centrifugation at 12,000 rpm for 10 minutes, and the supernatant was recovered as the plasma sample. The concentrations of luteinizing hormone (LH) and total testosterone in the plasma were measured with radioimmunoassay (rat LH RIA Immuno-reagent set, National Hormone and Peptide Program, available from Dr. A. F. Parlow, The National Institute of Diabetes and Digestive and Kidney Diseases, and DPC Total Testosterone Kit, Mitsubishi Chemical Formula Iatron, Inc.).

male Crl: CD (SD) rats [2] = assay: Testosterone release action in male rat (plasma total testosterone by radioimmunoassay); type: in vivo
Procedure: as §1

[3] = subcutaneous to the dorsum, 1, 10 or 100 nmol/kg, AUC from 0 hour to 4 hours after the administration, vs control group

| Substance | degree of increase in LH concentration in the plasma in comparison to metastin (45-54) (male Crl: CD (SD) rats [1]; subcutaneous) | degree of increase in total testosterone concentration in the plasma in comparison to metastin (45-54) (male Crl: CD (SD) rats [2]; subcutaneous) | dose showing (significant) increase in the LH concentration in the plasma (AUC) (male Crl: CD (SD) rats [1]; [3]) | dose showing (significant) increase in the total testosterone concentration in the plasma (AUC) (male Crl: CD (SD) rats [2]; [3]) |
| --- | --- | --- | --- | --- |
| PEG5K(CS)-CO-Acp-Tyr-Asn-Trp-Asn-Ser-Phe-Gly-Leu-Arg-Phe-NH2 ({PEG5K(CS)‑CO-Ahx}-YNWNSFGLRF-NH2) [compound 1] | greater degree of increase | greater degree of increase | – | – |
| metastin (45-54): peptide consisting of the N-terminal 45th-54th amino acid sequence of human metastin (SEQ ID NO: 16); PEPTIDE INSTITUTE, INC. (YNWNSFGLRF) | – | – | 100 nmol/kg | 100 nmol/kg |
